Numbers after ± are expanded uncertainties.
Experiments:
[1] = 101.33 kPa, Liquid
[2] = Boiling temperature at pressure P; conditions: 101.33 kPa; Liquid; Distillation
[3] = refractive index (Na D-line) (dimensionless); conditions: 293.15 K; 101.33 kPa; Liquid; Standard Abbe refractometry

Structure (SMILES)	mass density ([1]; 298.15 K)	Boiling temperature at pressure P [2]	refractive index [3]	mass density ([1]; 293.15 K)
CC(C)c1ccccc1 [isopropylbenzene]	863.75 ± 0.85 kg/m3	152.39 ± 0.5 °C	1.4913 ± 0.0008	
CCC(=O)O [propanoic acid]	988 ± 0.53 kg/m3	141.00 ± 0.5 °C	1.3811 ± 0.0008	
O=CO [formic acid]		109.90 ± 2 °C	1.3711 ± 0.0008	1218.5 ± 2.5 kg/m3
CC(=O)O [acetic acid]	1044.3 ± 0.26 kg/m3	117.70 ± 0.5 °C	1.3721 ± 0.0007	

From the NIST ThermoML archive (doi:10.1016/j.fluid.2006.07.011)
